Patent publication US20070066674A1, “Tricyclic imidzopyridines for use as gastric secretion inhibitors” (Altana Pharma AG, priority 2003, published 2007)

tested on: pentagastrin-stimulated acid secretion of the perfused rat stomach; experiment: Secretion-inhibiting action on the perfused rat stomach; assay type: in vivo; settings: dose 1 μmol/kg i.d., anesthetized CD rat, intraduodenal administration
Excerpt: In Table A which follows, the influence of the compounds of the formula 1 according to the invention and of their optical antipodes of the formula 2 on the pentagastrin-stimulated acid secretion of the perfused rat stomach after intraduodenal administration in vivo is shown.
The abdomen of anesthetized rats (CD rat, female, 200-250 g; 1.5 g/kg i.m. urethane) was opened after tracheotomy by a median upper abdominal incision and a PVC catheter was fixed transorally in the esophagus and another via the pylorus such that the ends of the tubes just projected into the gastric lumen. The catheter leading from the pylorus led outward into the right abdominal wall through a side opening.
After thorough rinsing (about 50-100 ml), warm (37° C.) physiological NaCl solution was continuously passed through the stomach (0.5 ml/min, pH 6.8-6.9; Braun-Unita I). The pH (pH meter 632, glass electrode EA 147; φ=5 mm, Metrohm) and, by titration with a freshly prepared 0.01 N NaOH solution to pH 7 (Dosimat 665 Metrohm), the secreted HCl were determined in the effluent in each case collected at an interval of 15 minutes.
The gastric secretion was stimulated by continuous infusion of […] (=1.65 ml/h) of i.v. pentagastrin (left femoral vein) about 30 min after the end of the operation (i.e. after determination of 2 preliminary fractions). The substances to be tested were administered intraduodenally in a 2.5 ml/kg liquid volume 60 min after the start of the continuous pentagastrin infusion. The body temperature of the animals was kept at a constant 37.8-38° C. by infrared irradiation and heat pads (automatic, stepless control by means of a rectal temperature sensor).

| Compound | Inhibition of acid secretion (%) |
| --- | --- |
| Cc1nc2c3c(c(C(=O)N(C)C)cn2c1C)CC[C@@H](c1ccccc1)O3.O=C(O)C(O)C(O)C(=O)O [Example 1, (9S)-2,3-Dimethyl-9-phenyl-7H8,9dihydro-pyrano[2,3-c]-imidazo[1,2-a]pyridine-6-carboxylic acid dimethylamide (R,R)-tartrate] | 100% |
| Cc1nc2c3c(c(C(=O)N(C)C)cn2c1C)CC[C@@H](c1ccccc1)O3 [Example 2, (9S)-2,3-Dimethyl-9-phenyl-7H-8,9-dihydro-pyrano[2,3c]-imidazo[1,2-a]pyridine-6-carboxylic acid dimethylamide] | 100% |
| CNC(=O)c1cn2c(C)c(C)nc2c2c1CC[C@@H](c1ccccc1)O2 [Example 7, (9S)-2,3-Dimethyl-9-phenyl-7H-8,9-dihydro-pyrano[2,3-c]-imidazo[1,2-a]pyridine-6-carboxylic acid methylamide] | 100% |
| Cc1ccccc1[C@@H]1CCc2c(C(=O)N(C)C)cn3c(C)c(C)nc3c2O1 [Example 9, (9S)-2,3-Dimethyl-9-(2-methylphenyl)-7H-8,9-dihydro-pyrano[2,3-c]-imidazo[1,2-a]pyridine-6-carboxylic acid dimethylamide] | 100% |
| Cc1nc2c3c(c(C(=O)N(C)C)cn2c1C)CC[C@@H](c1ccccc1F)O3 [Example 10, (9S)-9-(2-Fluorophenyl)-2,3-dimethyl-7H-8,9-dihydro-pyrano[2,3-c]-imidazo[1,2-a]pyridine-6-carboxylic acid dimethylamide] | 100% |
| Cc1nc2c3c(c(C(=O)N(C)C)cn2c1C)CC[C@@H](c1ccc(F)cc1)O3 [Example 11, (9S)-9-(4-Fluorophenyl)-2,3-dimethyl-7H-8,9-dihydro-pyrano[2,3-c]-imidazo[1,2-a]pyridine-6-carboxylic acid dimethylamide] | 100% |
| Cc1ccccc1[C@H]1CCc2c(C(=O)N(C)C)cn3c(C)c(C)nc3c2O1 [I, (9R)-2,3-Dimethyl-9-(2-methylphenyl)-7H-8,9-dihydro-pyrano[2,3-c]-Imidazo[1,2-a]pyridine-6-carboxylic acid dimethylamide] | <50% |
| Cc1nc2c3c(c(C(=O)N(C)C)cn2c1C)CC[C@H](c1ccc(F)cc1)O3 [K, (9R)-9-(4-Fluorophenyl)-2,3dimethyl-7H-8,9-dihydro-pyrano[2,3-c]-imidazo[1,2-a]pyridine-6-carboxylic acid dimethylamide] | <40% |

same assay, conditions: dose 2 μmol/kg i.d., anesthetized CD rat, intraduodenal administration

| Compound | Inhibition of acid secretion (%) |
| --- | --- |
| Cc1nc2c3c(c(C(N)=O)cn2c1C)CC[C@@H](c1ccccc1)O3 [Example 8, (9S)-2,3-Dimethyl-9-phenyl-7H-8,9-dihydro-pyrano[2,3c]-imidazo[1,2-a]pyridine-6-carboxylic acid amide] | 100% |

same assay, conditions: dose 3 μmol/kg i.d., anesthetized CD rat, intraduodenal administration

| Compound | Inhibition of acid secretion (%) |
| --- | --- |
| Cc1nc2c3c(c(C(=O)N(C)C)cn2c1C)CC[C@H](c1ccccc1)O3.O=C(O)C(O)C(O)C(=O)O [A, (9R)2,3-Dimethyl-9-phenyl-7H-8,9-dihydro-pyrano[2,3-c]-imidazo[1,2-a]pyridine-6-carboxylic acid dimethylamide (S,S)-tartrate] | <40% |
| Cc1nc2c3c(c(C(=O)N(C)C)cn2c1C)CC[C@H](c1ccccc1)O3 [B, (9R)-2,3-Dimethyl-9-phenyl-7H-8,9-dihydro-pyrano[2,3-c]-imidazo[1,2-a]pyridine-6-carboxylic acid dimethylamide] | <40% |
| Cc1nc2c3c(c(C(=O)N(C)C)cn2c1Br)CC[C@H](c1ccccc1)O3 [D, (9R)-3-Bromo-2-methyl-9-phenyl-7H-8,9-dihydro-pyrano[2,3-c]-imidazo[1,2-a]pyridine-6-carboxylic acid dimethylamide] | <40% |
| CCc1c(C)nc2c3c(c(C(=O)N(C)C)cn12)CC[C@H](c1ccccc1)O3 [E, (9R)-3-Ethyl-2-methyl-9-phenyl-7H-8,9-dihydro-pyrano[2,3-c]-imidazo[1,2-a]pyridine-6-carboxylic acid dimethylamide] | <30% |
| Cc1nc2c3c(c(C(=O)N(C)C)cn2c1Br)CC[C@@H](c1ccccc1)O3 [Example 4, (9S)-3Bromo-2-methyl-9-phenyl-7H-8,9-dihydro-pyrano[2,3-c]-imidazo[1,2-a]pyridine-6-carboxylic acid dimethylamide] | >60% |
| CCc1c(C)nc2c3c(c(C(=O)N(C)C)cn12)CC[C@@H](c1ccccc1)O3 [Example 5, (9S)-3-Ethyl-2-methyl-9-phenyl-7H-8,9-dihydro-pyrano[2,3c]-imidazo[1,2-a]pyridine-6-carboxylic acid dimethylamide] | >70% |
| Cc1nc2c3c(c(C(=O)N4CCCC4)cn2c1C)CC[C@@H](c1ccccc1)O3 [Example 6, (9S)-(2,3-Dimethyl-9-phenyl-7H-8,9-dihydro-pyrano[2,3c]-imidazo[1,2-a]pyridin-6-yl)-pyrrolidin-1-yl methanone] | 100% |
| Cc1nc2c3c(c(C(=O)N(C)C)cn2c1C)CC[C@@H](c1cccs1)O3 [Example 12, (9S)-2,3-Dimethyl-9-thiophen-2-yl-7H-8,9-dihydro-pyrano[2,3-c]-imidazo[1,2-a]pyridine-6-carboxylic acid dimethylamide] | 100% |
| COCc1cn2c(C)c(C)nc2c2c1CC[C@@H](c1ccccc1)O2 [Example 13, (9S)-6-Methoxymethyl-2,3-dimethyl-9-phenyl-7H-8,9-dihydro-pyrano[2,3-c]-imidazo[1,2-a]pyridine] | 100% |
| Cc1nc2c3c(c(C(=O)N4CCCC4)cn2c1C)CC[C@H](c1ccccc1)O3 [F, (9R)-(2,3-Dimethyl-9-phenyl-7H-8,9-dihydro-pyrano[2,3-c]-imidazo[1,2-a]pyridin-6-yl)-pyrrolidin-1-yl methanone] | <40% |
| CNC(=O)c1cn2c(C)c(C)nc2c2c1CC[C@H](c1ccccc1)O2 [G, (9R)-2,3-Dimethyl-9-phenyl-7H-8,9-dihydro-pyrano[2,3-c]-imidazo[1,2-a]pyridine-6-carboxylic acid methylamide] | <40% |
| Cc1nc2c3c(c(C(N)=O)cn2c1C)CC[C@H](c1ccccc1)O3 [H, (9R)-2,3-Dimethyl-9-phenyl-7H-8,9-dihydro-pyrano[2,3-c]-imidazo[1,2-a]pyridine-6-carboxylic acid amide] | <40% |
| Cc1nc2c3c(c(C(=O)N(C)C)cn2c1C)CC[C@H](c1ccccc1F)O3 [J, (9R)-9-(2-Fluorophenyl)-2,3-dimethyl-7H-8,9-dihydro-pyrano[2,3c]-imidazo[1,2-a]pyridine-6-carboxylic acid dimethylamide] | <50% |

same assay, conditions: dose 6 μmol/kg i.d., anesthetized CD rat, intraduodenal administration

| Compound | Inhibition of acid secretion (%) |
| --- | --- |
| Cc1nc2c3c(c(C(=O)N(C)C)cn2c1CO)CC[C@H](c1ccccc1)O3 [C, (9R)-3-Hydroxymethyl-2-methyl-9-phenyl-7H-8,9-dihydro-pyrano[2,3c]-imidazo[1,2-a]pyridine-6-carboxylic acid dimethylamide] | <30% |
| Cc1nc2c3c(c(C(=O)N(C)C)cn2c1CO)CC[C@@H](c1ccccc1)O3 [Example 3, (9S)-3-Hydroxymethyl-2-methyl-9-phenyl-7H-8,9-dihydro-pyrano[2,3-c]-imidazo[1,2-a]pyridine-6-carboxylic acid dimethylamide] | >50% |
